Each structure is given as a SMILES string.

Test [1] concerns adipocytes isolated from the thigh area of volunteers (adipocyte β receptors). In words: Lipolysis stimulation by glycerin release in isolated adipocytes. The test is classed as cell-based, human. The conditions noted are these: for Emax: Homo sapiens, Adipocyte, read-out: Maximum stimulation (lipolysis); for Concentration at maximum stimulation: lipolysis. How it is done: Glycerin release was used as a parameter to quantify lipolysis in actively metabolism adipocytes isolated from the thigh area of volunteers and evaluate various ingredients for their ability to stimulate adipocyte β receptors. Refined, or purified Malvaceae extracts comprising preferred aqueous or lipophilic fractions as described above, and some known β-adrenergic stimulators used in anticellulite treatments, namely the xanthines aminophylline, caffeine and theophylline, were tested. Also tested, for comparative purposes, were a crude Hibiscus Abelmoschus extract and a herbal ingredient that has been used in anticellulite compositions, ivy extract.

In the next test the test system is cAMP. In words: cAMP level (elevation of cAMP). The class given is cell-based, human.
In test [2] the test system is isolated adipocytes (adipocyte α2-receptors). In words: Inhibition of adipocyte lipid synthesis (lipogenesis). The class given is cell-based. An excerpt: The results obtained are reported below in Table 2.
Where [3] appears, read: glycerin release, most effective concentration.

`Cn1c(=O)c2[nH]cnc2n(C)c1=O` [theophylline]: in test [1] (setting [3]), the Emax came to 45%. Besides, in test [1], the “Concentration at maximum stimulation” value stood at 1.00 mg/mL. Also, the “Elevation of cAMP” value in the test with cAMP is given as “ns”. Also, in test [2], the “Lipogenesis inhibition (in words)” value is recorded as “No lipogenesis inhibition activity” and the “Maximum inhibition of adipocyte fat” value is given as “none”.
Turning to `Cn1c(=O)c2c(ncn2C)n(C)c1=O` [caffeine], in test [1] (setting [3]), the Emax was 51%. In test [1], the “Concentration at maximum stimulation” value came out at 2.00 mg/mL. Further, in the test with cAMP, the “Elevation of cAMP” value is “ns”.
Take `Cn1c(=O)c2[nH]cnc2n(C)c1=O` [aminophylline]: in test [1] (setting [3]), the “Maximum stimulation (lipolysis)” value worked out at 54.0%. Besides, the “Concentration at maximum stimulation” value in test [1] worked out at 1.00 mg/mL. Further, in the test with cAMP, the “Elevation of cAMP” value is reported as “ns”. In addition, in test [2], the “Lipogenesis inhibition (in words)” value was “No lipogenesis inhibition activity” and the “Maximum inhibition of adipocyte fat” value is listed as “none”.

For the origin of these results see patent US5705170A, “Herbal cellulite treatments” (priority 1995, dated 1998).
